Results: publication PMC7423715 (International journal of pharmaceutics, 2020)
Where a name gives a salt, the structure may show the parent alone. Bridge positions count the residues as written; N and C are the ends. Square brackets hold non-standard residues; d marks the D form. Peptide text beside a SMILES is read from it. * marks the point of attachment. X1 = CC[C@H](C)CCCCC(=O)*; Dab = NCC[C@H](N)C(=O)O

Test system: Calu-3 cell monolayer
Test: Transepithelial transport across the Calu-3 cell monolayer
Details: colistin transport, Calu-3 monolayer, HBSS, 4 hours, LC-MS/MS, n = 4, Fig. 6C

Structure (SMILES): CC[C@H](C)CCCCC(=O)N[C@@H](CCN)C(=O)N[C@H](C(=O)N[C@@H](CCN)C(=O)N[C@H]1CCNC(=O)[C@H]([C@@H](C)O)NC(=O)[C@H](CCN)NC(=O)[C@H](CCN)NC(=O)[C@H](CC(C)C)NC(=O)[C@@H](CC(C)C)NC(=O)[C@H](CCN)NC1=O)[C@@H](C)O [colistin, colistin sulfate] (X1-[Dab]T[Dab][Dab][Dab][dL]L[Dab][Dab]T; lactam 4-C)
- drug retained in the donor compartment: more than 90%
